The values below come from patent US7767398B2, “Means and methods for diagnosing and treating affective disorders” (Affectis Pharmaceuticals AG, priority 2003, dated 2010).

In experiment [1] the target is T1, P2X7R (Mus musculus, UniProt Q9Z1M0).
T1 construct: an immortalised mouse hippocampal cell line expressing the endogenous P2X7 gene; endogenous in cells; host or cells: HT-22 mouse hippocampal cell line
T1 sequence (Q9Z1M0 1-595): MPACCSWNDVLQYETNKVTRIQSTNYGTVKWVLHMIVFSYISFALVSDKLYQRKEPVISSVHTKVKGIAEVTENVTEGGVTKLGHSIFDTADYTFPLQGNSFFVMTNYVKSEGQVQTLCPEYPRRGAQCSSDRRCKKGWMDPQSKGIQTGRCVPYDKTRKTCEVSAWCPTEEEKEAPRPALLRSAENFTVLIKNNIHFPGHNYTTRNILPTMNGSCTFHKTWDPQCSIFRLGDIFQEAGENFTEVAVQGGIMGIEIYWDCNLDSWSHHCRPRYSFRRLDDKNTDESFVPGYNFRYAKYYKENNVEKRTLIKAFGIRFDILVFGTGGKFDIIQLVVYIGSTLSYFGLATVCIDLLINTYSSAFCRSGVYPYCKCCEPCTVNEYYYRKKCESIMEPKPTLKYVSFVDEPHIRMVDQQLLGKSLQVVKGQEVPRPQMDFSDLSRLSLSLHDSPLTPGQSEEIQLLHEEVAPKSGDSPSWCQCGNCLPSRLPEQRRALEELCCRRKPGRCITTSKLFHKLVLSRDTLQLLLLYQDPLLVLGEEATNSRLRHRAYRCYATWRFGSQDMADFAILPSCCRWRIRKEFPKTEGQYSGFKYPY
As to the kind of experiment: Calcium influx into HT-22 cells (Oregon green AM ester). The arrangement: dose or concentration left out as unconfirmed. As to conditions: HT-22 cells pre-treated with oATP for 1 hour before BzATP. It is filed as cell-based. The source says:
Since P2X7R is an ATP-gated ion channel which allows the entry of calcium and sodium ions into cells, a method for identifying P2X7R agonist was established by monitoring calcium influx into HT-22 cells. […] Calcium movement into the cells was visualised under a fluorescent microscope with a fluorescein filter (wavelength 492/517 nm). Oregon green AM ester is a fluorescent dye that binds to intracellular calcium. […] Alternatively, Oregon green AM ester can be replaced by Fluo-3, fluo-4, fluo-5F, fluo-5N, fluo4FF, Fluo4 dextran, Fluo-3 AM, Fluo-4 AM, Fluo-5F AM, Fluo-5N AM and Fluo4FF AM (Molecular Probes). Calcium influx in HT-22 cells can also be measured in 96-well and 384-well microplate using the Calcium Plus Assay Kit (Molecular Device) or FLIPR® Calcium Assay Kit for Fluorometric Imaging Plate Reader Systems (Molecular Device). HT-22 cells can be replaced by any cells expressing P2X7R, including cells that have been genetically modified by introducing an exogenous P2X7 gene.
Activation of P2X7R by the agonist was inhibited by oATP (FIG. 18) as illustrated by the absence of green fluorescence in the cells.

For another experiment, the system named is mice. As to the kind of experiment: Porsolt's forced swim test. As to conditions: 100 nM KN-62 or 10 μM oATP, 1 μl each side, dentate gyrus; 24 hours after injection; DBA/201a mice. In kind it is in vivo, mouse. How it is done: Further validation of role of P2X7R in affective disorders was performed by examining its expression pattern in response to stress and treatment with antidepressant drugs. […] In parallel, a control group of mice was given vehicle solution (i.e. without paroxetine) using the same treatment regiment while a second control group of mice was left undisturbed and stress-free (i.e. untreated) during the same period of the experiments. At the end of the long-term treatment, part of the mice of each experimental group were tested in the dark/light box (test of anxiety behaviour) and in the Porsolt's forced swim test (test of depressive-like behaviour) to confirm the effectiveness of the treatment (FIG. 5). […] The other part of the experimental groups (i.e. mice without test experience) were decapitated, brains rapidly removed and frozen at −80° C. until usage.
The effects of P2X7R inhibition on depressive-like behaviour was assessed 24 hours and 48 hours after infusion of siRNA, control or vehicle according to the standard test paradigm, the Porsolt's forced swim test (Porsolt et al., Arch. Int. Pharmacodym. 229 (1977), 327-336; Porsolt, Rev. Neurosci. 11 (2000), 53-58). […] Compared to vehicle application, no influence of control double stranded RNA (5′-[…]-3′) on floating behaviour (passive stress coping) was detected. […] This interpretation becomes moreover evident when the effects of antidepressants on passive stress coping behaviour in the forced swim test are visualized (FIG. 5). Passive stress coping behaviour increased after acute intrahippocampal injection (bilateral, dentate gyrus) of siRNA targeting P2X7R. The Porsolt's forced swim test is a standard test used to assess the effectiveness of antidepressants and it has been proven by many studies that the test is selectively sensitive for these effects, given that the right animal model is used. The paradigm has been widely used to test pharmaceutical compounds and to validate animal models of depression, which show an increase in passive behaviour as do the mice where P2X7R has been inhibited (siRNA).
The forced swim test is a standard test that measures primary stress-induced reductions in avoidance or escape, termed behavioural despair. The test is used to determine the effectiveness of antidepressants, test new pharmaceutical compounds and validate animal models of depression (Porsolt et al., Arch. Int. Pharmacodym. 229 (1977), 327-336; Porsolt, Rev. Neurosci. 11 (2000), 53-58; Rénéric et al., Behav. Brain Res. 136 (2002), 521-532; Page et al., Psychopharmacology 165 (2003), 194-201; Kelliher et al., Psychoneuroendocrinology 28 (2003), 332-347). The test consists of placing a mouse for a period of 5 minutes into a glass cylinder containing water. Under such circumstances, the mouse cannot touch the bottom of the cylinder and is thus forced to swim. Time, latency and frequency of struggling versus floating are scored as behavioural parameters. […] Increased struggling (i.e. active attempts to escape) indicates active coping behaviour that can be interpreted as an improvement of depression-like symptoms. For example, treatment with serotonergic antidepressants reduce the total time spent floating (Borsini, Neurosci. Biobehav. Rev. 19 (1995), 377-395; Redrobe and Bourin, Psychopharmacology 138 (1998), 198-206, and in parallel increases the time of active behaviour (i.e. swimming or struggling; Lucki et al., Psychopharmacology 155 (2001), 315-322).
The behaviour of individual mice was assessed using the Porsolt's forced swim test 24 hours after injection of vehicle solution, KN-62, or oATP. A pre-exposure of 5 minutes to the test was performed 15-17 minutes after administration of vehicle, KN-62, or oATP. A description of the Porsolt's forced swim test is given in example 9. […]

Experiment [2] concerns the target T1, P2X7R. Briefly: Entry of ethidium bromide into HT-22 cells. It is filed as cell-based. The settings on record: pre-incubation 60 minutes with 100 μM o-ATP before agonist and ethidium bromide. The source says:
Yet another method of measuring P2X7R activity involves the entry of ethidium bromide into P2X7R expressing cells. Activation of P2X7R by an agonist allows the entry of ethidium bromide which binds nuclear DNA and emits a fluorescence signal. Alternatively, the propidium dye YOPRO-1 can be substituted for ethidium bromide. An increase in fluorescence can be used as a measure of P2X7 receptor activation. Therefore, the assay can be used to test and quantify the effect of an agent or compound with agonist properties on P2X7R. In the present example, 10^3 HT-22 cells were seeded per well in a 96-well flat bottom microtitre plates and incubated at 37° C./5% CO2 in DMEM medium containing 10% FCS until the cells attached to the culture surface. […] The number of fluorescent cells which have integrated the ethidium bromide to the DNA can then be counted using a fluorescent microscope (Zeiss, Germany). […] Alternatively, ethidium bromide fluorescence can be measured using a Perkin-Elmer fluorescent plate reader (excitation 520 nm, emission 595 nm, slit widths: Ex 15 nm, Em 20 nm). From the readings obtained, a pIC50 figure can be calculated for each candidate agent or compound. […] The specificity of an agonist for P2X7R can be evaluated by pre-incubation of the cells for 60 minutes with 100 μM o-ATP before adding the agonist and ethidium bromide dye.

On to `Nc1ncnc2c1ncn2[C@@H](C=O)O[C@@H](C=O)COP(=O)(O)OP(=O)(O)OP(=O)(O)O` [oATP], for which, at P2X7R [1], the “activation of P2X7R by the agonist (BzATP) after antagonist pre-treatment, calcium influx” value is on record as “inhibited”. Besides, in the experiment with mice, the “active escape attempts (time, frequency, latency of struggling) in the forced swim test” value is given as “no changes” and the “passive behaviour (time, frequency, latency of floating) in the forced swim test” value is listed as “no changes”. Moreover, at P2X7R [2], the “number of fluorescent cells after antagonist pre-incubation (ethidium bromide entry)” value is on record as “reduction in the number of fluorescent cells”.
